In patent US12312333B2, “SK channel positive allosteric modulators” (Chapman University, priority 2021, dated 2025):

Tests used:
Type in all cases: cell-based
rat KCa2.2a = target: T1, rat KCa2.2a (UniProt P0DP23+P70604); test: Inside-out patch-clamp potentiation of KCa2.2a channels expressed in HEK293 cells; conditions: for EC50: inside-out patch, HEK293, 0.15 μM Ca2+, current at −90 mV, read-out: EC50 (mean ± SEM, μM) on potentiating KCa2.2a channels; for fold higher potency on KCa2.2a channels compared to CyPPA: ratio of EC50 values vs CyPPA; for KCa2.2a/KCa2.3 subtype selectivity: vs KCa2.1 and KCa3.1
T1 construct: expressed in transfected cells; host or cells: HEK293
Protocol: The impact of adding one substituent group at C4 of the cyclohexane moiety of CyPPA with either electron donating (OH (2a), NH2 (2b), CH2OH (2c), and OCH3 (2d)) or electron-withdrawing groups (F (2e) and NO2 (2f)) was explored. The potency of the newly synthesized compounds compared to the template CyPPA was measured via inside-out patch clamp electrophysiology recordings with KCa2.2a channels heterologously expressed in HEK293 cells (FIG. 1A). […] The responses induced by 10 μM Ca^2+ are considered the maximal currents of the KCa2.2a channels. To evaluate the efficacy (Emax) of compounds on KCa2.2a channels, the current amplitudes at −90 mV in response to the maximal concentration of compounds were normalized to that obtained at 10 μM Ca^2+ (I/Imax (%), FIG. 1C).
(§1) The effect of newly synthesized compounds on the KCa2.x/KCa3.1 channels was investigated as previously described (Nam, Y. W.; et al, Acta Physiol (Oxf) 2020, e13552; Nam, Y. W.; et al. Scientific reports 2018, 8 (1), 10749). Briefly, the rat KCa2.2a, human KCa2.1, human KCa2.3 or human KCa3.1 channels cDNA constructs were either generated in-house or through molecular cloning services (Genscript). The channel cDNAs, along with CaM and GFP, at a ratio of 7:4:2 (ORF ratios), were transfected into HEK293 cells by the calcium-phosphate method. KCa currents were recorded 1-2 days after transfection, with an Axon200B amplifier (Molecular Devices) at room temperature. The resistance of the patch electrodes ranged from 3-5 MΩ. The pipette solution contained (in mM): 140 KCl, 10 Hepes (pH 7.4), 1 MgSO4. The bath solution containing (in mM): 140 KCl, 10 Hepes (pH 7.2), 1 EGTA, 0.1 Dibromo-BAPTA, and 1 HEDTA was mixed with Ca^2+ to obtain the desired free Ca^2+ concentrations, calculated using the software by Chris Patton of Stanford University (https://somapp.ucdmc.ucdavis.edu/pharmacology/bers/maxchelator/webmaxc/webmaxcS.htm). The Ca^2+ concentrations were verified using a Ca^2+ calibration buffer kit (Thermo Fisher Scientific). Briefly, a standard curve was generated using the Ca^2+ buffers from the kit and a fluorescence Ca^2+ indicator. Then, the Ca^2+ concentrations of the bath solution were determined through interpolation on the standard curve.
High resistance seals (>1 GΩ) were formed before inside-out patches were obtained. The seal resistance of inside-out patches was >1 GΩ, when the intracellular face was initially exposed to a zero-Ca^2+ bath solution. Currents were recorded by repetitive 1-s-voltage ramps from −100 mV to +100 mV from a holding potential of 0 mV. The currents were filtered at 2 kHz and digitized at a sampling frequency of 10 kHz. At the end of experiment, the integrity of the patch was examined by switching the bath solution back to the zero-Ca^2+ buffer. Data from patches, which maintained the seal resistance (>1 GΩ) after solution changes, were used for further analysis.
(§2) To measure the effect of CyPPA (Alomone Labs) and newly synthesized compounds, the intracellular face was exposed to bath solutions with 0.15 μM Ca^2+. One minute after switching of bath solutions, ten sweeps with a 1-s interval were recorded at a series of concentrations of compound in the presence of 0.15 μM Ca^2+. The maximal KCa2.x/KCa3.1 current in response to 10 μM Ca^2+ was then recorded.
Patch-clamp recordings were analyzed using Clampfit 10.5 (Molecular Devices LLC) and concentration-response curves were analyzed in GraphPad Prism 9.0.2 (GraphPad Software Inc.). To construct the concentration-dependent potentiation of channel activities by compound, the current amplitudes at −90 mV in response to various concentrations of the compound were normalized to that obtained at a maximal concentration of compound. The normalized currents were plotted as a function of the concentrations of the compound. EC50 values and Hill coefficients were determined by fitting the data points to a standard concentration-response curve (Y=100/(1+(X/EC50)^−Hill)). […]

human KCa2.1 channel = target: T2, human KCa2.1 channel (Homo sapiens, UniProt P0DP23+Q92952); test: Inside-out patch-clamp on KCa2.1 channels expressed in HEK293 cells; conditions: for response of KCa2.1 channels: inside-out patch; for Emax: normalized to 10 μM Ca2+
T2 construct: expressed in transfected cells; host or cells: HEK293
Protocol: (§3) The two newly synthesized compounds, 2o and 2q, were tested to determine whether they retained their subtype-selectivity. Neither 2o (FIG. 5A) nor 2q (FIG. 5B) elicited significant responses from the human KCa2.1 channel expressed in HEK293 cells. When compared with the responses from KCa2.2a channels to these two compounds, the differences became even more apparent (FIG. 5C), with the Emax values on KCa2.2a channels at ˜90%, whereas the Emax values on KCa2.1 channels were at ˜0% (FIG. 5D).
as §1, with “The Ca^2+ concentrations were verified using a Ca^2+ calibration buffer kit (Thermo Fisher Scientific).” left out
(§4) High resistance seals (>1 GΩ) were formed before inside-out patches were obtained. […] Currents were recorded by repetitive 1-s-voltage ramps from −100 mV to +100 mV from a holding potential of 0 mV. […]
as §2
(§5) Patch-clamp recordings were analyzed using Clampfit 10.5 (Molecular Devices LLC) and concentration-response curves were analyzed in GraphPad Prism 9.0.2 (GraphPad Software Inc.). […] EC50 values and Hill coefficients were determined by fitting the data points to a standard concentration-response curve (Y=100/(1+(X/EC50)^−Hill)). […]

human KCa3.1 channel = target: T3, human KCa3.1 channel (Homo sapiens, UniProt O15554+P0DP23); test: Inside-out patch-clamp on KCa3.1 channels expressed in HEK293 cells; conditions: for response of KCa3.1 channels: inside-out patch; for Emax: normalized to 10 μM Ca2+
T3 construct: expressed in transfected cells; host or cells: HEK293
Protocol: as §3
as §1, with “The Ca^2+ concentrations were verified using a Ca^2+ calibration buffer kit (Thermo Fisher Scientific).” left out
as §4, §2, §5

Row | EC50 (rat KCa2.2a) [µM] | fold higher potency on KCa2.2a channels compared to CyPPA (rat KCa2.2a) [fold] | response of KCa2.1 channels (human KCa2.1 channel) | Emax (human KCa2.1 channel) [%] | response of KCa3.1 channels (human KCa3.1 channel) | Emax (human KCa3.1 channel) [%] | Compound | KCa2.2a/KCa2.3 subtype selectivity (rat KCa2.2a)
1 | 0.99 ± 0.079 | ~7 | Lack of response | ~0 | mostly insensitive | 26.1 ± 7.67 | Cc1cc(Nc2ccc(F)c(Cl)c2)nc(-n2nc(C)cc2C)n1 [Compound 2o, N-(3-Chloro-4-fluorophenyl)-2-(3,5-dimethyl-1H-pyrazol-1-yl)-6-methyl-pyrimidin-4-amine] | retained the KCa2.2a/KCa2.3 subtype selectivity
2 | 0.64 ± 0.051 | ~10 | Lack of response | ~0 | mostly insensitive | -0.79 ± 1.19 | Cc1cc(Nc2cc(Cl)ccc2F)nc(-n2nc(C)cc2C)n1 [Compound 2q, N-(5-Chloro-2-fluorophenyl)-2-(3,5-dimethyl-1H-pyrazol-1-yl)-6-methylpyrimidin-4-amine] | retained the KCa2.2a/KCa2.3 subtype selectivity
